Reference: patent publication US12036312B2, “Non-aqueous topical compositions comprising a halogenated salicylanilide” (priority 2016, dated 2024)

Test system: S. aureus
Test: MIC assay according to CLSI criteria, Example 2, S. aureus strains
Type: cell-based, Staphylococcus aureus
Settings: Staphylococcus aureus
Description: Chosen for its relevance regarding bacterial skin infections, the methicillin-resistant S. aureus (MRSA) 01 strain was used as the primary test microorganism. This strain is a community-acquired MRSA clinical isolate of USA 300 type, from a skin abscess.
Two-hundred-four other MRSA and methicillin-sensitive S. aureus strains, and 4 Streptococcus pyogenes strains, were also included in the study. These covered fusidic acid- and mupirocin-resistant strains, these two types of resistance being of clinical relevance.
Strains were conserved in Luria Bertani (LB) Broth (S. aureus) or Brain Heart Infusion (BHI) (S. pyogenes) supplemented with glycerol 15% (v/v) at −80° C., and reactivated by isolation on LB (S. aureus) or BHI (S. pyogenes) agar plates. Strains were cultivated in Mueller Hinton (MH) Broth-cation adjusted (S. aureus) or BHI (S. pyogenes). All strains were cultivated aerobically (microaerobically for S. pyogenes strains) at 37° C.
Bacterial cultures were stopped in their exponential growth phase and plates were inoculated with the approximate concentration of 5×10^5 cells per well. Plates were incubated at 37° C. for 18 hours (S. aureus) or 24 hours (S. pyogenes). Optical density at a wavelength of 600 nm was measured at the end of the incubation time.

Measured: MIC

CN[C@H](CC(C)C)C(=O)N[C@H]1C(=O)N[C@@H](CC(N)=O)C(=O)N[C@H]2C(=O)N[C@H]3C(=O)N[C@H](C(=O)N[C@H](C(=O)O)c4cc(O)cc(O)c4-c4cc3ccc4O)[C@H](O)c3ccc(c(Cl)c3)Oc3cc2cc(c3O[C@@H]2O[C@H](CO)[C@@H](O)[C@H](O)[C@H]2O[C@H]2C[C@](C)(N)[C@H](O)[C@H](C)O2)Oc2ccc(cc2Cl)[C@H]1O [Vancomycin, vancomycin]
1 µg/mL: ATCC29213, strain ATCC 29213 | MRSA, strain MRSA 01 | MRSA, strain MRSA 03 | MRSA, strain MRSA 05 | MRSA, strain MRSA 07 | MRSA, strain MRSA 08 | MRSA, strain MRSA 10 | MRSA, strain MRSA 11 | MRSA, strain MRSA 13 | MRSA, strain MRSA 14 | MRSA, strain MRSA 16 | MRSA, strain MRSA 18 | MRSA, strain MRSA 19 | MRSA, strain MRSA 20 | MRSA, strain MRSA 21 | MRSA, strain MRSA 23 | MRSA, strain MRSA 25 | MRSA, strain MRSA 26 | MRSA, strain MRSA 27 | MRSA, strain MRSA 27b | MRSA, strain MRSA 28 | MRSA, strain MRSA 29 | MRSA, strain MRSA 30 | MRSA, strain MRSA 31 | MRSA, strain MRSA 32 | MRSA, strain MRSA 33 | MRSA, strain MRSA 34 | MRSA, strain MRSA 35 | MRSA, strain MRSA 36 | MRSA, strain MRSA 37 | MRSA, strain MRSA 38 | MRSA, strain MRSA 39 | MRSA, strain MRSA 40 | MRSA, strain MRSA 41 | MRSA, strain MRSA 42 | MRSA, strain MRSA 43 | MRSA, strain MRSA 44 | MRSA, strain MRSA 45 | MRSA, strain MRSA 46 | MRSA, strain MRSA 50 | MRSA, strain MRSA 51 | MRSA, strain MRSA 52 | MRSA, strain MRSA 53 | MRSA, strain MRSA 56 | MRSA, strain MRSA 57 | MRSA, strain MRSA 58 | MRSA, strain MRSA 59 | MRSA, strain MRSA 63 | MRSA, strain MRSA 64 | MRSA, strain MRSA 65 | MRSA, strain MRSA 66 | MRSA, strain MRSA 67 | MRSA, strain MRSA 68 | MRSA, strain MRSA 69 | MRSA, strain MRSA 70 | MRSA, strain MRSA 71 | MRSA, strain MRSA 72 | MRSA, strain MRSA 73 | MRSA, strain MRSA 74 | MRSA, strain MRSA 75 | MRSA, strain MRSA 76 | MRSA, strain MRSA 78 | MRSA, strain MRSA 79 | MRSA, strain MRSA 80 | MRSA, strain MRSA 81 | MRSA, strain MRSA 83 | MRSA, strain MRSA 85 | MRSA, strain MRSA 87 | MRSA, strain MRSA 88 | MRSA, strain MRSA 89 | MRSA, strain MRSA 90 | MRSA, strain MRSA 91 | MRSA, strain MRSA 92 | MRSA, strain MRSA 96 | MRSA, strain MRSA 97 | MRSA, strain MRSA 98 | MRSA, strain MRSA 99 | MRSA, strain MRSA 100 | MRSA, strain MRSA 101 | MRSA, strain MRSA 103 | MRSA, strain MRSA 104 | MRSA, strain MRSA 105 | MRSA, strain MRSA 106 | MRSA, strain MRSA 108 | MRSA, strain MRSA 109 | MRSA, strain MRSA 110 | MRSA, strain MRSA 111 | MRSA, strain MRSA 112 | MRSA, strain MRSA 113 | MSSA, strain MSSA 01 | MSSA, strain MSSA 02 | strain 9-1862936 | strain 9-2625962 | strain 9-2642158 | strain 9-2955245 | strain 9-26422166 | strain 000040C | strain 000041C | strain 000274T | strain 114660U | strain 115242C | strain 115268C | strain 115273C | strain 115295C | strain 115303C | strain 115370U | strain 115427C | strain 115445C | strain 115561C | strain 115691T | strain 115740E | strain 115810E | strain 115903T | strain 116122T | strain E5-1029252 | strain E5-1029558 | strain E5-1030440 | strain E5-1030472 | strain E5-1030482 | strain E5-1033076 (first listing, r204) | strain E5-1033076 (second listing, r205) | strain E5-1033088 | strain E5-1033091 | strain E5-1035277 | strain E5-1035284 | strain E5-1035775 | strain E5-1035779 | strain E5-1037958 | strain E5-1037971 | strain E5-1038279 | strain E5-1038286 | strain E5-1038294 | strain E5-1039684 | strain E5-1039697 | strain E5-1041979 | strain E5-1041980 | strain E5-1041987 | strain E5-1043184 | strain E5-1043668 | strain E5-1045179 | strain E5-1046019 | strain E5-1046020 | strain E5-1046039 | strain E5-1046070 | strain E5-1046074 | strain E5-1046096 | strain E5-1046296 | strain E5-1046297 | strain E5-1046298 | strain E5-1047585 | strain E5-1047606 | strain E5-1047924 | strain E5-1048428 | strain E5-1048654 | strain EEFIC 01 | strain EEFIC 02 | strain K000772 | strain K000796 | strain K000863 | strain K000864 | strain K000866 | strain R000020 | strain R000024 | strain U115579
2 µg/mL: MRSA, strain MRSA 02 | MRSA, strain MRSA 04 | MRSA, strain MRSA 06 | MRSA, strain MRSA 09 | MRSA, strain MRSA 15 | MRSA, strain MRSA 17 | MRSA, strain MRSA 24 | MRSA, strain MRSA 49 | MRSA, strain MRSA 54 | MRSA, strain MRSA 61 | MRSA, strain MRSA 62 | MRSA, strain MRSA 77 | MRSA, strain MRSA 82 | MRSA, strain MRSA 84 | MRSA, strain MRSA 86 | MRSA, strain MRSA 93 | MRSA, strain MRSA 94 | MRSA, strain MRSA 95 | MRSA, strain MRSA 102 | MRSA, strain MRSA 107 | NEWMAN, strain Newman | strain 115015T | strain 115263C | strain 115584D | strain 115628T | strain 115690C | strain E5-1030469 | strain E5-1041977 | strain E5-1046085 | strain E5-1046723 | strain E5-1048204 | strain E5-1048670 | strain K115498 | strain K115688 | strain K115689 | strain R000019
0.5 µg/mL: MRSA, strain MRSA 22 | MRSA, strain MRSA 47 | MRSA, strain MRSA 48 | MRSA, strain MRSA 55 | MRSA, strain MRSA 60
